{"source": "patent US12617779B2", "about": "“Self degradation-type CDK9 inhibitor prodrug and liposome encapsulating same” (Sumitomo Pharma Co., Ltd., priority 2021, dated 2026)", "assay": "Evaluation of conversion rate to active form in buffer solution (Experimental Example 1)", "assay_type": "physicochemical", "details": "for Production rate of Alvocidib / Residual rate: 25 umol/L in buffer solution", "summary_of_the_method": "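Compounds at 25 umol/L were held at 37 °C in 50 mM citrate (pH 5.0, 5.5) or phosphate (pH 6.0–7.4) buffers. Remaining compound and Alvocidib formed were quantified by HPLC at 0, 0.5, 1, 2 and 3 h.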"}
{"smiles": "CC(C)N(CC1CCCCN1)C(=O)Oc1cc(O)c2c(=O)cc(-c3ccccc3Cl)oc2c1[C@H]1CCN(C)C[C@H]1O", "note": "(stereo partly drawn) [Example 10, 2-(2-chlorophenyl)-5-hydroxy-8-[(3S,4R)-3-hydroxy-1-methylpiperidin-4-yl]-4-oxo-4H-1-benzopyran-7-yl [(piperidin-2-yl)methyl]propan-2-ylcarbamate]", "values": [{"measurement": "Efficiency of conversion to Alvocidib", "setting": "buffer solution, 37° C.", "result": "higher efficiency"}, {"measurement": "Production rate of Alvocidib", "setting": "pH5.0, 0 hr, 37° C.", "result": 1.6, "unit": "%"}, {"measurement": "Residual rate", "setting": "pH5.0, 0 hr, 37° C.", "result": 90.6, "unit": "%"}, {"measurement": "Stability in buffer solution at pH 5", "setting": "pH 5, 37° C., up to 2 or 3 hours", "result": "stable"}, {"measurement": "Production rate of Alvocidib", "setting": "pH5.0, 0.5 hr, 37° C.", "result": 2.1, "unit": "%"}, {"measurement": "Residual rate", "setting": "pH5.0, 0.5 hr, 37° C.", "result": 90.4, "unit": "%"}, {"measurement": "Production rate of Alvocidib", "setting": "pH5.0, 1 hr, 37° C.", "result": 2.5, "unit": "%"}, {"measurement": "Residual rate", "setting": "pH5.0, 1 hr, 37° C.", "result": 90.8, "unit": "%"}, {"measurement": "Production rate of Alvocidib", "setting": "pH5.0, 2 hr, 37° C.", "result": 3.1, "unit": "%"}, {"measurement": "Residual rate", "setting": "pH5.0, 2 hr, 37° C.", "result": 90.1, "unit": "%"}, {"measurement": "Production rate of Alvocidib", "setting": "pH5.0, 3 hr, 37° C.", "result": 3.9, "unit": "%"}, {"measurement": "Residual rate", "setting": "pH5.0, 3 hr, 37° C.", "result": 89.5, "unit": "%"}, {"measurement": "Production rate of Alvocidib", "setting": "pH5.5, 0 hr, 37° C.", "result": 1.6, "unit": "%"}, {"measurement": "Residual rate", "setting": "pH5.5, 0 hr, 37° C.", "result": 90.7, "unit": "%"}, {"measurement": "Production rate of Alvocidib", "setting": "pH5.5, 0.5 hr, 37° C.", "result": 2.7, "unit": "%"}, {"measurement": "Residual rate", "setting": "pH5.5, 0.5 hr, 37° C.", "result": 90.4, "unit": "%"}, {"measurement": "Production rate of Alvocidib", "setting": "pH5.5, 1 hr, 37° C.", "result": 3.6, "unit": "%"}, {"measurement": "Residual rate", "setting": "pH5.5, 1 hr, 37° C.", "result": 89.5, "unit": "%"}, {"measurement": "Production rate of Alvocidib", "setting": "pH5.5, 2 hr, 37° C.", "result": 5.4, "unit": "%"}, {"measurement": "Residual rate", "setting": "pH5.5, 2 hr, 37° C.", "result": 87.9, "unit": "%"}, {"measurement": "Production rate of Alvocidib", "setting": "pH5.5, 3 hr, 37° C.", "result": 7.2, "unit": "%"}, {"measurement": "Residual rate", "setting": "pH5.5, 3 hr, 37° C.", "result": 86.3, "unit": "%"}, {"measurement": "Production rate of Alvocidib", "setting": "pH6.0, 0 hr, 37° C.", "result": 1.7, "unit": "%"}, {"measurement": "Residual rate", "setting": "pH6.0, 0 hr, 37° C.", "result": 90.7, "unit": "%"}, {"measurement": "Production rate of Alvocidib", "setting": "pH6.0, 0.5 hr, 37° C.", "result": 4.9, "unit": "%"}, {"measurement": "Residual rate", "setting": "pH6.0, 0.5 hr, 37° C.", "result": 88.2, "unit": "%"}, {"measurement": "Production rate of Alvocidib", "setting": "pH6.0, 1 hr, 37° C.", "result": 8.1, "unit": "%"}, {"measurement": "Residual rate", "setting": "pH6.0, 1 hr, 37° C.", "result": 85.2, "unit": "%"}, {"measurement": "Production rate of Alvocidib", "setting": "pH6.0, 2 hr, 37° C.", "result": 14.1, "unit": "%"}, {"measurement": "Residual rate", "setting": "pH6.0, 2 hr, 37° C.", "result": 79.4, "unit": "%"}, {"measurement": "Production rate of Alvocidib", "setting": "pH6.0, 3 hr, 37° C.", "result": 19.8, "unit": "%"}, {"measurement": "Residual rate", "setting": "pH6.0, 3 hr, 37° C.", "result": 74.1, "unit": "%"}, {"measurement": "Production rate of Alvocidib", "setting": "pH6.5, 0 hr, 37° C.", "result": 1.9, "unit": "%"}, {"measurement": "Residual rate", "setting": "pH6.5, 0 hr, 37° C.", "result": 91.3, "unit": "%"}, {"measurement": "Production rate of Alvocidib", "setting": "pH6.5, 0.5 hr, 37° C.", "result": 10.8, "unit": "%"}, {"measurement": "Residual rate", "setting": "pH6.5, 0.5 hr, 37° C.", "result": 82.4, "unit": "%"}, {"measurement": "Production rate of Alvocidib", "setting": "pH6.5, 1 hr, 37° C.", "result": 19.4, "unit": "%"}, {"measurement": "Residual rate", "setting": "pH6.5, 1 hr, 37° C.", "result": 73.9, "unit": "%"}, {"measurement": "Production rate of Alvocidib", "setting": "pH6.5, 2 hr, 37° C.", "result": 34.6, "unit": "%"}, {"measurement": "Residual rate", "setting": "pH6.5, 2 hr, 37° C.", "result": 59.6, "unit": "%"}, {"measurement": "Production rate of Alvocidib", "setting": "pH6.5, 3 hr, 37° C.", "result": 46.2, "unit": "%"}, {"measurement": "Residual rate", "setting": "pH6.5, 3 hr, 37° C.", "result": 47.1, "unit": "%"}, {"measurement": "Production rate of Alvocidib", "setting": "pH7.0, 0 hr, 37° C.", "result": 2.2, "unit": "%"}, {"measurement": "Residual rate", "setting": "pH7.0, 0 hr, 37° C.", "result": 90.7, "unit": "%"}, {"measurement": "Production rate of Alvocidib", "setting": "pH7.0, 0.5 hr, 37° C.", "result": 22.8, "unit": "%"}, {"measurement": "Residual rate", "setting": "pH7.0, 0.5 hr, 37° C.", "result": 70.0, "unit": "%"}, {"measurement": "Production rate of Alvocidib", "setting": "pH7.0, 1 hr, 37° C.", "result": 40.0, "unit": "%"}, {"measurement": "Residual rate", "setting": "pH7.0, 1 hr, 37° C.", "result": 52.8, "unit": "%"}, {"measurement": "Production rate of Alvocidib", "setting": "pH7.0, 2 hr, 37° C.", "result": 63.6, "unit": "%"}, {"measurement": "Residual rate", "setting": "pH7.0, 2 hr, 37° C.", "result": 29.6, "unit": "%"}, {"measurement": "Production rate of Alvocidib", "setting": "pH7.0, 3 hr, 37° C.", "result": 76.4, "unit": "%"}, {"measurement": "Residual rate", "setting": "pH7.0, 3 hr, 37° C.", "result": 0.8, "unit": "%"}, {"measurement": "Production rate of Alvocidib", "setting": "pH7.4, 0 hr, 37° C.", "result": 3.1, "unit": "%"}, {"measurement": "Residual rate", "setting": "pH7.4, 0 hr, 37° C.", "result": 89.9, "unit": "%"}, {"measurement": "Conversion to Alvocidib at pH 7.4", "setting": "pH 7.4, 37° C., up to 3 hours", "result": "rapidly converted to Alvocidib"}, {"measurement": "Production rate of Alvocidib", "setting": "pH7.4, 0.5 hr, 37° C.", "result": 46.1, "unit": "%"}, {"measurement": "Residual rate", "setting": "pH7.4, 0.5 hr, 37° C.", "result": 46.5, "unit": "%"}, {"measurement": "Production rate of Alvocidib", "setting": "pH7.4, 1 hr, 37° C.", "result": 71.5, "unit": "%"}, {"measurement": "Residual rate", "setting": "pH7.4, 1 hr, 37° C.", "result": 22.6, "unit": "%"}, {"measurement": "Production rate of Alvocidib", "setting": "pH7.4, 2 hr, 37° C.", "result": 87.2, "unit": "%"}, {"measurement": "Residual rate", "setting": "pH7.4, 2 hr, 37° C.", "result": 0.9, "unit": "%"}, {"measurement": "Production rate of Alvocidib", "setting": "pH7.4, 3 hr, 37° C.", "result": 91.6, "unit": "%"}, {"measurement": "Residual rate", "setting": "pH7.4, 3 hr, 37° C.", "result": 0.8, "unit": "%"}]}
